According to patent US6031004A, “Salts of metformin and method” (Bristol-Myers Squibb Company, priority 1999, dated 2000):
Counter-ions that a name gives are not always drawn. Like-named read-outs stand apart in the source and are kept apart here.

What was measured:
[1] = hygroscopicity / moisture uptake at 95% relative humidity by Dynamic Vapour Sorption (DVS); type: physicochemical; settings: for % moisture uptake, 30 min / % moisture uptake, 70 min / % moisture uptake, 3 hours / % moisture uptake, 6 hours: DVS; for moisture uptake equilibrium reached or not: at the last time point (6 hours; 30 min for succinate)
Method: The following experiment was carried out to determine moisture sorption/desorption profiles of metformin (2:1) fumarate salt and metformin (2:1) succinate salt compared to the moisture uptake properties of metformin hydrochloride salt.
The hygroscopicity of metformin salts was assessed by Dynamic Vapour Sorption (DVS), a means of rapidly assessing sample moisture uptake properties. […] […] The weight increase of sample at each condition is recorded until a defined minimal rate of mass change is reached or a specified time period for equilibrium exceeded.

[2] = compaction susceptibility (tendency of the salt to compact under its own weight); type: physicochemical
[3] = 95% relative humidity/25° C., hydrochloride

equilibrium moisture content after 30 minutes (summary) ([1]; 95% relative humidity at 25° C., 30 minutes) [%]	% moisture uptake, 30 min ([1]; 95% relative humidity/25° C.) [%]	hygroscopicity, moisture uptake at 30 minutes ([1]; 95% relative humidity/25° C., 30 minutes)	hygroscopicity, moisture uptake at 6 hours ([1]; 95% relative humidity/25° C.)	moisture uptake equilibrium reached or not ([1]; 95% relative humidity/25° C.)	compaction susceptibility [2]	moisture content after 6 hours (summary) ([1]; 95% relative humidity at 25° C., hydrochloride) [%]	% moisture uptake, 30 min [1, 3] [%]	% moisture uptake, 70 min [1, 3] [%]	% moisture uptake, 3 hours [1, 3] [%]	% moisture uptake, 6 hours [1, 3] [%]	hygroscopicity, moisture uptake at 6 hours [1, 3]	compaction susceptibility ([2]; hydrochloride)	moisture content after 6 hours (summary) ([1]; 95% relative humidity at 25° C.) [%]	% moisture uptake, 70 min ([1]; 95% relative humidity/25° C.) [%]	% moisture uptake, 3 hours ([1]; 95% relative humidity/25° C.) [%]	% moisture uptake, 6 hours ([1]; 95% relative humidity/25° C.) [%]	Compound	moisture absorbed compared to the metformin (2:1) fumarate and succinate salts ([1]; vs metformin (2:1) fumarate and succinate salts, 95% relative humidity)
0.27	0.27	less than 1 % moisture uptake	less than 7 % moisture uptake	reach equilibrium	low compaction susceptibility	–	–	–	–	–	–	–	–	–	–	–	CN(C)C(=N)NC(=N)N [metformin (2:1) succinate]	–
–	–	–	–	did not reach equilibrium	–	20	1.2	3.3	10.0	20.1	greater than 20 % moisture uptake	high compaction susceptibility	–	–	–	–	CN(C)C(=N)N=C(N)N [metformin hydrochloride, reference compound]	substantially greater amounts of moisture
–	1.0	–	less than 7 % moisture uptake	–	low compaction susceptibility	–	–	–	–	–	–	–	6.6	2.0	4.1	6.6	CN(C)C(=N)N=C(N)N [metformin (2:1) fumarate]	–
